From patent publication US20050009924A1 (priority 2003, published 2005)
Where two headings read alike, the source gives them in different places.

Assays:
human hepatoma G2 cells = assay: Cytotoxicity assay (XTT colorimetric), Hep G2; assay type: cell-based; settings: 48 h of drug exposure
[1] = MTT relative viability, PhTERT-SEAP (H1299) cells; settings: human
[2] = tested on: transcriptional activity of hTERT; assay: SEAP reporter assay of hTERT expression, PhTERT-SEAP (H1299); assay type: cell-based, human; settings: for Relative SEAP activity (%): hTERT-H1299
Summary of the method: (§1)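 SEAP activity, read as rate of 405 nm absorbance rise with 12 mM p-nitrophenyl phosphate in diethanolamine/MgCl2/homoarginine buffer after 65 °C, 10 min heat inactivation, reports hTERT or CMV promoter activity. G418-selected stable H1299 or hTERT-BJ1 reporter lines were exposed to drug for 24 h.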

[3] = tested on: iron-induced lipid peroxidation in rat brain homogenates; assay: Iron-induced lipid peroxidation in rat brain homogenates; settings: for Inhibition of LP(10 mM): mean percent inhibition (Table 3); for LP (%) (10 mM): relative percentage of inhibition (Table 1)
[4] = MTT relative viability, PhTERT-SEAP (hTERT-BJ1) cells; settings: human
[5] = tested on: transcriptional activity of hTERT; assay: SEAP reporter assay of hTERT expression, PhTERT-SEAP (hTERT-BJ1); assay type: cell-based, human; settings: hTERT-BJ1
Summary of the method: as §1

CMV promoter = assay: SEAP reporter assay of CMV promoter activity, PCMV-SEAP (hTERT-BJ1); assay type: cell-based; settings: Homo sapiens, read-out: Relative SEAP activity (%)
rat glioma C6 cells = assay: Cytotoxicity assay (XTT colorimetric), C6 cells; assay type: cell-based; settings: 48 h of drug exposure
[6] = MTT relative viability, PCMV-SEAP (hTERT-BJ1) cells; assay type: cell-based; settings: human, stable PCMV-SEAP reporter clone
Source text: Culture media were changed every 3 days. […] The stable clones were selected using G418.

[7] = tested on: non-small-cell lung cancer cells H1299
[8] = tested on: hepatitis B virus transfected hepatoma cell lines, HepG 2.2.15 cells; assay: Cytotoxicity assay, 2.2.15 cells; assay type: cell-based, human; settings: 48 h of drug exposure
[9] = Homo sapiens, NCI-H1299, H1299, read-out: Relative SEAP activity (%)
[10] = Homo sapiens, read-out: Relative SEAP activity (%)

melting point	SMILES	IC50 (human hepatoma G2 cells; Homo sapiens, HepG2)	IC50 (rat glioma C6 cells; Rattus norvegicus, C6)	viability at 48 h, 2.2 µM [1]	viability at 48 h, 22 µM [1]	viability at 48 h, 220 µM [1]	activity at 2.2 µM [2, 9]	activity at 22 µM [2, 9]	activity at 220 µM [2, 9]	LP (%) (10 mM) ([3]; 10 mM)	viability at 48 h, 2.2 µM [4]	viability at 48 h, 22 µM [4]	viability at 48 h, 220 µM [4]	activity at 2.2 µM [5, 10]	activity at 22 µM [5, 10]	activity at 220 µM [5, 10]	also measured
230 to 231 °C	CCC(=O)Oc1cccc2c1C(=O)c1cccc(OC(=O)CC)c1C2=O [IIIa, 1,5-Bis(propionyloxy)-anthraquinone]	4.1 ± 0.5 µM	21.1 ± 1.6 µM	–	–	–	–	–	–	–	–	–	–	–	–	–	viability at 48 h, 2.8 µM [1]: 116 ± 8%; viability at 48 h, 28 µM [1]: 116 ± 7.4%; viability at 48 h, 280 µM [1]: 87 ± 6.6%; activity at 2.8 µM ([2]; Homo sapiens, NCI-H1299, 2.8 μM, H1299, read-out: Relative SEAP activity (%)): 103 ± 5.8%; activity at 28 µM ([2]; Homo sapiens, NCI-H1299, 28 μM, H1299, read-out: Relative SEAP activity (%)): 107 ± 4.9%; activity at 280 µM ([2]; Homo sapiens, NCI-H1299, 280 μM, H1299, read-out: Relative SEAP activity (%)): 97 ± 3.1%; Inhibition of LP(10 mM) ([3]; 10 mM): −100%; viability at 48 h, 2.8 µM [4]: 99 ± 11.9%; viability at 48 h, 28 µM [4]: 109 ± 8.7%; viability at 48 h, 280 µM [4]: 93 ± 10.8%; activity at 2.8 µM ([5]; Homo sapiens, 2.8 μM, read-out: Relative SEAP activity (%)): 131 ± 7%; activity at 28 µM ([5]; Homo sapiens, 28 μM, read-out: Relative SEAP activity (%)): 152 ± 16.7%; activity at 280 µM ([5]; Homo sapiens, 280 μM, read-out: Relative SEAP activity (%)): 161 ± 12.2%; activity at 2.8 µM (CMV promoter; 2.8 μM): 101 ± 6%; activity at 28 µM (CMV promoter; 28 μM): 112 ± 6%; activity at 280 µM (CMV promoter; 280 μM): 138 ± 12%; viability at 48 h, 2.8 µM ([6]; 2.8 μM): 114 ± 16%; viability at 48 h, 28 µM ([6]; 28 μM): 110 ± 12%; viability at 48 h, 280 µM ([6]; 280 μM): 94 ± 21%
166 to 167 °C	CC(C)(C)C(=O)Oc1cccc2c1C(=O)c1cccc(OC(=O)C(C)(C)C)c1C2=O [IIId, 1,5-Bis(pivaloyloxy)-anthraquinone]	13.7 ± 1.8 µM	12 ± 1.5 µM	–	–	–	–	–	–	–	–	–	–	–	–	–	viability at 48 h, 2.4 µM [1]: 106 ± 8.9%; viability at 48 h, 24 µM [1]: 97 ± 7.1%; viability at 48 h, 240 µM [1]: 70 ± 5.2%; activity at 2.4 µM ([2]; Homo sapiens, NCI-H1299, 2.4 μM, H1299, read-out: Relative SEAP activity (%)): 105 ± 4.9%; activity at 24 µM ([2]; Homo sapiens, NCI-H1299, 24 μM, H1299, read-out: Relative SEAP activity (%)): 78 ± 14.8%; activity at 240 µM ([2]; Homo sapiens, NCI-H1299, 240 μM, H1299, read-out: Relative SEAP activity (%)): 80 ± 10.1%; Inhibition of LP(10 mM) ([3]; 10 mM): −23 ± 1.1^ %; viability at 48 h, 2.4 µM [4]: 94 ± 3.4%; viability at 48 h, 24 µM [4]: 93 ± 6%; viability at 48 h, 240 µM [4]: 100 ± 9%; activity at 2.4 µM ([5]; Homo sapiens, 2.4 μM, read-out: Relative SEAP activity (%)): 147 ± 11.1%; activity at 24 µM ([5]; Homo sapiens, 24 μM, read-out: Relative SEAP activity (%)): 165 ± 18.7%; activity at 240 µM ([5]; Homo sapiens, 240 μM, read-out: Relative SEAP activity (%)): 141 ± 14.4%; activity at 2.4 µM (CMV promoter; 2.4 μM): 102 ± 10%; activity at 24 µM (CMV promoter; 24 μM): 114 ± 18%; activity at 240 µM (CMV promoter; 240 μM): 141 ± 11%; viability at 48 h, 2.4 µM ([6]; 2.4 μM): 115 ± 7%; viability at 48 h, 24 µM ([6]; 24 μM): 104 ± 8%; viability at 48 h, 240 µM ([6]; 240 μM): 103 ± 11%
283 to 284 °C	Nc1ccccc1Sc1cccc2c1C(=O)c1cccc(Sc3ccccc3N)c1C2=O [IIf, 1,5-Bis(o-aminophenylthio)-Anthraquinone]	34 ± 1.7 µM	15.1 ± 1.7 µM	94 ± 3.5%	50 ± 3.3%	14 ± 2.5%	108 ± 12.2%	96 ± 8.4%	59 ± 6.6%	5 ± 0.5%	103 ± 7.9%	107 ± 5.5%	25 ± 3.3%	136 ± 17.5%	141 ± 18.2%	115 ± 29.7%	activity at 2.2 µM (CMV promoter; 2.2 μM): 103 ± 8%; activity at 22 µM (CMV promoter): 102 ± 10%; activity at 220 µM (CMV promoter): 122 ± 8%; viability at 48 h, 2.2 µM ([6]; 2.2 μM): 108 ± 9%; viability at 48 h, 22 µM [6]: 109 ± 4%; viability at 48 h, 220 µM [6]: 48 ± 6%
364 to 365 °C	Nc1ccc(Sc2cccc3c2C(=O)c2cccc(Sc4ccc(N)cc4)c2C3=O)cc1 [IIh, 1,5-Bis(p-aminophenylthio)-Anthraquinone]	17.4 ± 1.5 µM	0.05 ± 0.01 µM	103 ± 4.3%	76 ± 4%	42 ± 2.3%	100 ± 5.7%	95 ± 2.6%	84 ± 5.3%	20 ± 1.4%	86 ± 11.9%	65 ± 12.6%	56 ± 13.8%	97 ± 17.9%	97 ± 14.5%	26 ± 12.6%	–
281 to 282 °C	O=C1c2cccc(SCc3ccccc3)c2C(=O)c2cccc(SCc3ccccc3)c21 [IIi, 1,5-Bis(benzylthio)-anthraquinone]	41.5 ± 2.5 µM	38.2 ± 4.4 µM	83 ± 5.5%	44 ± 0.9%	34 ± 3.3%	97 ± 6%	100 ± 7.2%	100 ± 12.9%	>100%	121 ± 4.7%	98 ± 4.2%	47 ± 9.1%	117 ± 11.3%	112 ± 9.3%	87 ± 11.1%	Inhibition (%) ([3]; 0.01 mM): 24 ± 0.8%; Inhibition (%) ([3]; 0.1 mM): 60 ± 2.0%; Inhibition (%) ([3]; 1 mM): 95%; Inhibition (%) ([3]; 10 mM): >100%
297 to 299 °C	COc1ccc(CSc2cccc3c2C(=O)c2cccc(SCc4ccc(OC)cc4)c2C3=O)cc1 [IIj, 1,5-Bis(p-methoxybenzylthio)-Anthraquinone]	28.6 ± 1.2 µM	25.1 ± 2.8 µM	89 ± 6.1%	59 ± 5.4%	42 ± 0.3%	92 ± 3.3%	96 ± 8.5%	88 ± 5.6%	67 ± 2.9%	119 ± 9.4%	98 ± 13.4%	62 ± 6.4%	142 ± 27.7%	141 ± 22.6%	118 ± 19.2%	activity at 2 µM (CMV promoter; 2.0 μM): 103 ± 15%; activity at 22 µM (CMV promoter): 102 ± 8%; activity at 220 µM (CMV promoter): 100 ± 8%; viability at 48 h, 2 µM ([6]; 2.0 μM): 116 ± 13%; viability at 48 h, 22 µM [6]: 67 ± 18%; viability at 48 h, 220 µM [6]: 52 ± 7%
209 to 210 °C	O=C1c2cccc(SCCc3ccccc3)c2C(=O)c2cccc(SCCc3ccccc3)c21 [IIk, 1,5-Bis(phenylethylthio)-anthraquinone]	36.9 ± 1.5 µM	32.9 ± 3.3 µM	93 ± 6.2%	51 ± 9.3%	27 ± 2.9%	108 ± 0.5%	102 ± 0.5%	97 ± 4.8%	69 ± 1.5%	91 ± 3.9%	54 ± 4.4%	35 ± 4.1%	119 ± 12.2%	109 ± 23.4%	110 ± 30.6%	–
–	O=C1c2cccc(NCCO)c2C(=O)c2cccc(NCCO)c21 [IVb, 1,5-Bis(ethanolamino)anthraquinone]	–	–	–	–	–	–	–	–	–	–	–	–	–	–	–	Relative MTT viability (%) ([7]; 3 µM): 105 ± 6.3%; Relative MTT viability (%) ([7]; 30 µM): 88 ± 9.1%; Relative MTT viability (%) ([7]; 308 µM): 53 ± 2.8%; IC50 (human hepatoma G2 cells): > 20 µM; Relative SEAP activity (%) ([2]; 3.0 μM): 91 ± 3.9%; Relative SEAP activity (%) ([2]; 30 μM): 88 ± 4.5%; Relative SEAP activity (%) ([2]; 308 μM): 5.7 ± 1.1%; Relative MTT viability (%) (hTERT-BJ1 cells; 3 µM): 116 ± 5.6%; Relative MTT viability (%) (hTERT-BJ1 cells; 30 µM): 90 ± 26.9%; Relative MTT viability (%) (hTERT-BJ1 cells; 308 µM): 69 ± 18.7%; IC50 [8]: 19.3 µM; Relative SEAP activity (%) ([5]; 3.0 μM): 45 ± 20.6%; Relative SEAP activity (%) ([5]; 30 μM): 16 ± 13.1%; Relative SEAP activity (%) ([5]; 308 μM): 11 ± 11.6%; IC50 (rat glioma C6 cells): > 20 µM
